Reference: patent US20250235510A1, “COMBINATION THERAPY USING GLUCOSE-DEPENDENT INSULINOTROPIC POLYPEPTIDE RECEPTOR ANTAGONIST COMPOUNDS AND GLP-1 RECEPTOR AGONIST PEPTIDES” (Pfizer Inc., priority 2024, published 2025)

Target: T1, human Glucose-dependent Insulinotropic Polypeptide Receptor (hGIPR) (Homo sapiens, UniProt P48546)
T1 sequence (P48546 22-466): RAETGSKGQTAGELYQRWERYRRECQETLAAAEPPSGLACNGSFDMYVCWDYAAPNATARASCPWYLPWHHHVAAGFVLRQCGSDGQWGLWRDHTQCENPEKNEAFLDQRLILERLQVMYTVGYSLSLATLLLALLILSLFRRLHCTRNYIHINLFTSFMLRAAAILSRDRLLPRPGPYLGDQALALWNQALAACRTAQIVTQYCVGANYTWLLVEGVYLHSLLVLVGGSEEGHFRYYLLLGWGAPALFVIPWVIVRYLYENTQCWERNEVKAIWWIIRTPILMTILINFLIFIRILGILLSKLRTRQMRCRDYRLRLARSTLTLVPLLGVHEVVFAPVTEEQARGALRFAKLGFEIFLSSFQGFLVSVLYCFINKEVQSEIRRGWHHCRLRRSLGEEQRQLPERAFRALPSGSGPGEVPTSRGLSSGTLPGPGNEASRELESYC
Test: Functional in vitro GIPR antagonist potency assay (intracellular cAMP, HTRF) in CHO-K1 cells stably expressing hGIPR
Assay type: cell-based
Details: 2 h compound incubation, then hGIP at estimated EC80 for 30 min
Procedure: The functional in vitro antagonist potency for test compounds was determined by monitoring intracellular cyclic adenosine monophosphate (cAMP) levels in Chinese hamster ovary (CHO)-K1 cells stably expressing the human Glucose-dependent Insulinotropic Polypeptide Receptor (hGIPR). Following agonist activation, hGIPR associates with the G-protein complex causing the Gas subunit to exchange bound guanosine diphosphate (GDP) for guanosine triphosphate (GTP), followed by dissociation of the Gas-GTP complex. The activated Gas subunit can couple to downstream effectors to regulate the levels of second messengers or cAMP within the cell. Thereby, determination of intracellular cAMP levels allows for pharmacological characterization. Intracellular cAMP levels are quantitated using a homogenous assay utilizing the Homogeneous Time Resolved Fluorescence (HTRF) technology from Perkin Elmer. […] The two entities compete for binding to a monoclonal anti-cAMP antibody labeled with cryptate. […]
([…]: 5% CO2), with a micro-clime lid. […] ([…]: 5% CO2), after which intracellular cAMP levels were quantified and samples measured as described previously. […]
Data were analyzed using the ratio of fluorescence intensity at 620 and 665 nm for each well, extrapolated from the cAMP standard curve to express data as nanomolar (nM) cAMP for each well. […]

Question: Which IC50 does the source give for `CC(C)c1ccc(NC(=O)N2CCC[C@H]2C(=O)Nc2ccc3cc(C(=O)O)ccc3c2)cc1` [Compound 41A, 6-[(1-{[4-(propan-2-yl)phenyl]carbamoyl}prolyl)amino] naphthalene-2-carboxylic acid] here?
Answer: 160 nM

Question: How did the IC50 turn out when `CC(C)c1ccc(NC(=O)N2CCC[C@H]2C(=O)Nc2ccc(-c3ccc(C(=O)O)cc3)cc2)cc1` [Compound 44A, 4′-[(1-{[4-(propan-2-yl)phenyl]carbamoyl}prolyl)amino][1,1′-biphenyl]-4-carboxylic acid] was run?
Answer: 6.8 nM
